Our source for the IC50 values is patent US10028961B2, “Therapeutically active compounds and their methods of use” (AGIOS PHARMACEUTICALS, INC., priority 2013, dated 2018).

Usually IC50 stands for the point on the concentration scale where inhibition reaches its midpoint.

Molecules are shown by their SMILES.

Assay [1] has as its system U87MG pLVX-IDH2 R140Q-neo cells. The assay is described as follows: U87MG pLVX-IDH2 R140Q-neo cell based assay, 2-HG by LC-MS. Particulars: Homo sapiens, U-87 MG.
The target of assay [2] is IDH1-R132H homodimer enzyme (Homo sapiens (Human), UniProt O75874, R132H). As to the kind of experiment: In vitro assay IDH1-R132H homodimer, NADPH depletion assay with NADPH/NADP preincubation. To be noted: 5 μM NADPH and 37.5 μM NADP. Type of assay: biochemical. In outline:
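Compounds were added from DMSO at 50× final concentration, and the mutant enzyme was incubated 60 min at room temperature after starting with a substrate mix holding NADPH and 5 mM alpha-ketoglutarate. Residual cofactor, read by fluorescence after excess diaphorase and resazurin, reflects enzyme turnover.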

The target in assay [3] is IDH1 wt/IDH1 R132C heterodimer (Homo sapiens (Human), UniProt O75874, R132C). As to the kind of experiment: In vitro assay for IDH1m R132C inhibitors, IDH1 wt/IDH1 R132C heterodimer, NADPH depletion (diaphorase/resazurin). The class given is biochemical. To be noted: NADPH/NADP. Summed up: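 Remaining NADPH was measured by diaphorase/resazurin conversion (5 min, 25 °C) as resorufin fluorescence, Ex 544/Em 590. DMSO was diluted 1:50 into the reaction, and IC50s were derived.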
On the technique in general: Resazurin is reduced to fluorescent resorufin, in cell work by metabolically active cells.

For assay [4], the system named is HT1080 cells. As to the kind of experiment: Cellular assay for IDH1m R132C inhibitors, 2-HG by LC-MS in HT1080 cells. The class given is cell-based. Particulars: Homo sapiens, HT-1080. Summed up: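 2-HG levels were measured by LC-MS in culture medium sampled 48 h after compound addition (0.2% DMSO) to HT1080 cells seeded overnight at 5000 cells/well. A CellTiter-Glo luminescence read at 72 h gave cell viability.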

Sequence of IDH1 wt/IDH1 R132C heterodimer (O75874 whole entry R132C): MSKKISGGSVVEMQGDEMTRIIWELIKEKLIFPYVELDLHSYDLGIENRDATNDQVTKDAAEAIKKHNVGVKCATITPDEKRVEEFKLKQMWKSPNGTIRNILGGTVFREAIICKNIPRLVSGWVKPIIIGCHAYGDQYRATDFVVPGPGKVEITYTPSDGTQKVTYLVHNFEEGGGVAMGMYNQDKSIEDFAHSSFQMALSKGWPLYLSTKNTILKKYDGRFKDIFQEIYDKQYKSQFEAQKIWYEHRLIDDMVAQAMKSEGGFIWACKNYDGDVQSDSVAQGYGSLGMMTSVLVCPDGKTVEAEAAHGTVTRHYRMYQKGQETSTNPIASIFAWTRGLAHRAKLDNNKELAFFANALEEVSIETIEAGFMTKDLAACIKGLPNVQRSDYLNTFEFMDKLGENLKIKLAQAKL
Sequence of IDH1 wt/IDH1 R132C heterodimer (O75874 whole entry, stated change not applied): as the sequence (O75874 whole entry R132C) above, with C132R counted along it
Sequence of IDH1-R132H homodimer enzyme (O75874 whole entry R132H): as the sequence (O75874 whole entry R132C) above, with C132H counted along it

On to `FC1(F)CCC(Nc2nc(NC3CCC(F)(F)C3)nc(-n3ccc(C(F)(F)F)n3)n2)C1` (stereo not drawn) [Compound 146], for which the IC50 in assay [1], in assay [2] and in assay [3] was < 0.05 µM in each case.
Turning to `Clc1cccc(-c2nc(NC(C3CC3)C3CC3)nc(NC(C3CC3)C3CC3)n2)n1` [Compound 131], the results for the IC50 in assay [1], in assay [2] and in assay [3] were < 0.05 µM, 0.05 to 0.1 µM and < 0.05 µM, respectively.
For the molecule `CC(F)(F)c1cccc(-c2nc(NC3CC(F)(F)C3)nc(NC3CC(F)(F)C3)n2)n1` [Compound 187], the 50% inhibitory concentration (IC50) in assay [1] is < 0.05 µM; in assay [2], 0.1 to 1 µM; in assay [3], < 0.05 µM.
As to `CC(Nc1nc(Nc2ccnc(C3(C#N)CC3)c2)nc(-c2cccc(Cl)n2)n1)C(F)(F)F` (stereo not drawn) [Compound 134], the half-inhibitory concentration (IC50) in assay [1], in assay [2], in assay [4] and in assay [3] was < 0.05 µM in each case.
For `FC1(F)CC(Nc2nc(NC3CC(F)(F)C3)nc(-c3csc(C(F)(F)F)n3)n2)C1` [Compound 170], the IC50 was < 0.05 µM in assay [1], 0.1 to 1 µM in assay [2] and < 0.05 µM in assay [3].
`Fc1cc(F)cc(Nc2nc(NC3CC(F)(F)C3)nc(-n3ccc(C(F)(F)F)n3)n2)c1` [Compound 106]: the IC50 was < 0.05 µM in assay [1], < 0.05 µM in assay [2] and 0.1 to 1 µM in assay [4].
Regarding `N#CC1(c2cc(Nc3nc(NC4CCC(F)(F)CC4)nc(-c4cccc(C(F)(F)F)n4)n3)ccn2)CC1` [Compound 189], the IC50 in assay [1] was < 0.05 µM; in assay [2], 0.1 to 1 µM; in assay [4] it was 0.1 to 1 µM; in assay [3], < 0.05 µM.
`FC1(F)CCC(Nc2nc(NC3CCN(c4ccccn4)C3)nc(-c3cccc(C(F)(F)F)n3)n2)C1` (stereo not drawn) [Compound 222]: the IC50 in assay [1] lay within 0.1 to 1 µM; in assay [2], 0.1 to 1 µM; in assay [3] it was 0.05 to 0.1 µM.
`N#CC1(c2cc(Nc3nc(NC4CC(F)(F)C4)nc(-c4cccc(C(F)(F)F)n4)n3)ccn2)CC1` [Compound 168]: the IC50 in assay [1], in assay [2] and in assay [4] was < 0.05 µM each time.
With `FC1(F)CCC(Nc2nc(NC3CCC(F)(F)C3)nc(-c3nccc(C(F)(F)F)n3)n2)C1` (stereo not drawn) [Compound 237], the IC50 in assay [1] was < 0.05 µM; in assay [2] it was 0.1 to 1 µM; in assay [4] it was 0.1 to 1 µM; in assay [3], < 0.05 µM.
Turning to `CC(C)(CC#N)Nc1nc(Nc2ccnc(C(C)(F)F)c2)nc(-c2cccc(C(F)(F)F)n2)n1` [Compound 231], the IC50 in assay [1] was < 0.05 µM; in assay [2], 0.1 to 1 µM; in assay [4] it was > 1 µM; in assay [3], 0.05 to 0.1 µM.
`FC1(F)CCC(Nc2nc(NC3CCC(F)(F)CC3)nc(-c3csc(C(F)(F)F)n3)n2)CC1` [Compound 223]: the IC50 in assay [1] is < 0.05 µM; in assay [2], 0.1 to 1 µM; in assay [3] it was 0.05 to 0.1 µM.
Take `FC1(F)CCC(Nc2nc(NC3CCC(F)(F)C3)nc(-c3cccc(OC(F)(F)F)n3)n2)C1` (stereo not drawn) [Compound 252]: the half-maximal inhibitory concentration (IC50) in assay [1] is < 0.05 µM; in assay [2], > 1 µM; in assay [3], 0.1 to 1 µM.
With `N#CC1(c2cc(Nc3nc(NC4CC(F)(F)C4)nc(-c4cncc(C(F)(F)F)n4)n3)ccn2)CC1` [Compound 401], the figures for the 50% inhibitory concentration (IC50) in assay [1], in assay [2] and in assay [4] were < 0.05 µM, < 0.05 µM and 0.1 to 1 µM, respectively.
Take `Fc1ccc([C@H]2C[C@@H](Nc3nc(NC4CCC(F)(F)C4)nc(-c4cccc(C(F)(F)F)n4)n3)C2)cc1` (stereo partly drawn) [Compound 199]: the IC50 in assay [1] is < 0.05 µM; in assay [2], 0.1 to 1 µM; in assay [3], < 0.05 µM.
On to `FC1(F)CCC(Nc2nc(NC3CC4(C3)CC(F)(F)C4)nc(-c3cccc(C(F)(F)F)n3)n2)C1` (stereo not drawn) [Compound 191], for which the IC50 is < 0.05 µM in assay [1], 0.1 to 1 µM in assay [2], 0.1 to 1 µM in assay [4] and < 0.05 µM in assay [3].
Turning to `FC1(F)CC(Nc2nc(NC3CC(F)(F)C3)nc(-n3ccc(C(F)(F)F)n3)n2)C1` [Compound 126], the half-inhibitory concentration (IC50) in assay [1] was < 0.05 µM; in assay [2] it was 0.05 to 0.1 µM; in assay [3] it was < 0.05 µM.
Take `FC1(F)CCC(Nc2nc(NC3CCC(F)(F)CC3)nc(-c3cncc(C(F)(F)F)n3)n2)CC1` [Compound 160]: the IC50 in assay [1] is < 0.05 µM; in assay [2], 0.05 to 0.1 µM; in assay [4], < 0.05 µM.
`N#Cc1cc(Nc2nc(NC3CC(F)(F)C3)nc(-c3cccc(C(F)(F)F)n3)n2)ccn1` [Compound 213]: the IC50 in assay [1] is < 0.05 µM; in assay [2], 0.05 to 0.1 µM; in assay [3], < 0.05 µM.
On to `Fc1cc(F)cc(Nc2nc(NC3CCC(F)(F)C3)nc(-c3cccc(C(F)(F)F)n3)n2)c1` (stereo not drawn) [Compound 123], for which the IC50 was < 0.05 µM in assay [1], < 0.05 µM in assay [2], 0.1 to 1 µM in assay [4] and < 0.05 µM in assay [3].
Take `FC1(F)CC(Nc2nc(NC3CC(F)(F)C3)nc(-c3cccc(C(F)(F)F)n3)n2)C1` [Compound 149]: the half-maximal inhibitory concentration (IC50) in assay [1] was < 0.05 µM; in assay [2], < 0.05 µM; in assay [4], 0.05 to 0.1 µM; in assay [3], < 0.05 µM.
As for `N#Cc1cc(F)cc(Nc2nc(NC3CCC(F)(F)C3)nc(-c3cccc(C(F)(F)F)n3)n2)c1` (stereo not drawn) [Compound 124], the IC50 in assay [1], in assay [2] and in assay [3] was < 0.05 µM throughout.
For the molecule `FC1(F)CCC(Nc2nc(NC3CCN(c4ncccn4)C3)nc(-c3cccc(C(F)(F)F)n3)n2)C1` (stereo not drawn) [Compound 227], the IC50 in assay [1] lay within 0.1 to 1 µM; in assay [2], 0.1 to 1 µM; in assay [3] it was 0.05 to 0.1 µM.
For the molecule `CC(F)(F)c1cccc(-c2nc(NC3CCC(F)(F)C3)nc(NC3CCC(F)(F)C3)n2)n1` (stereo not drawn) [Compound 105], the IC50 in assay [1], in assay [2], in assay [4] and in assay [3] was < 0.05 µM throughout.
As to `N#Cc1cc(Nc2nc(NC3CCC(F)(F)C3)nc(-c3cccc(C(F)(F)F)n3)n2)ccn1` (stereo not drawn) [Compound 181], the IC50 in assay [1] is < 0.05 µM; in assay [2] it was < 0.05 µM; in assay [4], 0.1 to 1 µM; in assay [3], < 0.05 µM.
As for `N#Cc1cc(F)cc(Nc2nc(NC3CCC(F)(F)CC3)nc(-c3cccc(C(F)(F)F)n3)n2)c1` [Compound 164], the results for the IC50 in assay [1], in assay [2] and in assay [3] were < 0.05 µM, 0.05 to 0.1 µM and < 0.05 µM, respectively.
With `FC1(F)CCC(Nc2nc(NC3CCC(F)(F)CC3)nc(-c3nccc(C(F)(F)F)n3)n2)CC1` [Compound 293], the IC50 is 0.05 to 0.1 µM in assay [1], > 1 µM in assay [2] and 0.1 to 1 µM in assay [3].
As for `CC(CC#N)Nc1nc(N[C@H](C)C2CC2)nc(-c2cccc(C(F)(F)F)n2)n1` (stereo partly drawn) [Compound 214], the concentration for half-maximal inhibition (IC50) was < 0.05 µM in assay [1], 0.1 to 1 µM in assay [2] and < 0.05 µM in assay [3].
For `FC1(F)CCC(Nc2nc(NC3Cc4ccccc4C3)nc(-c3cccc(C(F)(F)F)n3)n2)C1` (stereo not drawn) [Compound 152], the 50% inhibitory concentration (IC50) in assay [1], in assay [2] and in assay [3] was < 0.05 µM throughout.
As for `FC1(F)CC(Nc2nc(NC3CC(F)(F)C3)nc(-c3nccc(C(F)(F)F)n3)n2)C1` [Compound 256], the results for the IC50 in assay [1], in assay [2] and in assay [3] were < 0.05 µM, > 1 µM and 0.05 to 0.1 µM, respectively.
Consider `FC1(F)CCC(Nc2nc(NC3Cc4ccc(Cl)cc4C3)nc(-c3cccc(C(F)(F)F)n3)n2)C1` (stereo not drawn) [Compound 182], for which the IC50 is < 0.05 µM in assay [1], 0.1 to 1 µM in assay [2] and < 0.05 µM in assay [3].
On to `N#CC1(c2cc(Nc3nc(NCC(F)(F)F)nc(-c4cccc(C(F)(F)F)n4)n3)ccn2)CC1` [Compound 226], for which the IC50 in assay [1] was < 0.05 µM; in assay [2], 0.1 to 1 µM; in assay [3], 0.05 to 0.1 µM.
Turning to `FC1(F)CC(Nc2nc(NC3CC(F)(F)C3)nc(-c3cncc(C(F)(F)F)n3)n2)C1` [Compound 161], the half-inhibitory concentration (IC50) in assay [1], in assay [2] and in assay [4] was < 0.05 µM throughout.
As to `CC(C)(C)Nc1nc(Nc2ccnc(C#N)c2)nc(-c2cccc(C(F)(F)F)n2)n1` [Compound 162], the half-inhibitory concentration (IC50) in assay [1], in assay [2] and in assay [3] was < 0.05 µM throughout.
In the case of `CC(C#N)Nc1nc(Nc2ccnc(C(C)(F)F)c2)nc(-c2cccc(C(F)(F)F)n2)n1` (stereo not drawn) [Compound 253], the values for the 50% inhibitory concentration (IC50) in assay [1], in assay [2] and in assay [3] were < 0.05 µM, 0.1 to 1 µM and 0.1 to 1 µM, respectively.
With `N#CC1(c2cc(Nc3nc(NC4CCC(F)(F)C4)nc(-c4nccc(C(F)(F)F)n4)n3)ccn2)CC1` (stereo not drawn) [Compound 261], the IC50 in assay [1] was < 0.05 µM; in assay [2], > 1 µM; in assay [3] it was 0.05 to 0.1 µM.
Regarding `FC1(F)CC[C@H](Nc2nc(Nc3ccnc(C(F)(F)F)c3)nc(-c3cncc(C(F)(F)F)n3)n2)C1` [Compound 391], the IC50 in assay [1] is < 0.05 µM; in assay [2] it was 0.05 to 0.1 µM; in assay [4] it was 0.1 to 1 µM.
Regarding `N#CC1(c2cc(Nc3nc(NC4CCC(F)(F)C4)nc(-c4cccc(C(F)(F)F)n4)n3)ccn2)CC1` (stereo not drawn) [Compound 151], the IC50 in assay [1], in assay [2] and in assay [3] was < 0.05 µM in each case.
With `CC(C)(C#N)Nc1nc(Nc2ccnc(C(C)(F)F)c2)nc(-c2cccc(C(F)(F)F)n2)n1` [Compound 247], the IC50 is < 0.05 µM in assay [1], 0.1 to 1 µM in assay [2] and 0.05 to 0.1 µM in assay [3].
In the case of `FC1(F)CCC(Nc2nc(Nc3ccnc(C(F)(F)F)c3)nc(-c3cncc(C(F)(F)F)n3)n2)CC1` [Compound 389], the 50% inhibitory concentration (IC50) is < 0.05 µM in assay [1], 0.05 to 0.1 µM in assay [2] and 0.1 to 1 µM in assay [4].
